How the values were obtained:
HIV-1 PR = HIV-1 PR (Human immunodeficiency virus type 1 group M subtype B, UniProt P04585); test: HIV-protease inhibitory activity assay (FRET peptide substrate); format: biochemical; settings: Test Example 1
Procedure, shortened: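 Fluorescence recovery at ex 485/em 535 nm reports cleavage of a quenched FRET peptide (2 μmol/L final) by 0.83 ng enzyme over 60 minutes at room temperature. Buffer was NaAc pH 4.8 with NaCl, EDTA, DTT and Tween 20. IC50 values came from four-parameter logistic regression of % inhibition.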

[1] = Evaluation of total body clearance (CLtot), intravenous administration; format: in vivo, Sprague-Dawley (SD); settings: rat (SD), intravenous administration 0.5-10 mg/kg; CLtot = dose/AUC
Procedure, shortened: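 Compounds given as a single tail-vein injection at 0.5-10 mg/kg (n=2-3), dose varying by compound. Plasma sampled at scheduled times and measured by LC/MS/MS; CLtot derived as dose divided by AUC from pharmacokinetic analysis.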

Compound | IC50 (HIV-1 PR) | rat_CLt [1]
COc1ccc(S(=O)(=O)N(CC(C)C)CC(O)C(Cc2ccc(N(C)Cc3ccc(OC)cc3-c3sc4c(c3C(=O)O)CC(C)(C)CC4)cc2)NC(=O)OC2COC3(C)OCCC23)cc1 (stereo not drawn) [Compound I-490] | 2.01 nM | 0.88 mL/min/kg
COc1ccc(S(=O)(=O)N(CC(C)C)CC(O)C(Cc2ccc(NCc3cc(N4CCCC4)ccc3-c3sc4c(c3C(=O)O)CC(C)(C)CC4)cc2)NC(=O)OC2COC3(C)OCCC23)cc1 (stereo not drawn) [Compound I-480] | 2.36 nM | 0.0997 mL/min/kg
COc1ccc(S(=O)(=O)N(CC(C)C)CC(O)C(Cc2ccc(N(C)Cc3ccc(F)cc3-c3sc4c(c3C(=O)O)CC(C)(C)CC4)cc2)NC(=O)OC2COC3(C)OCCC23)cc1 (stereo not drawn) [Compound I-491] | 1.92 nM | 3.32 mL/min/kg
CC1(C)CCc2sc(NC(=O)c3ccccc3CNc3ccc(CC(NC(=O)OC4COC5(C)OCCC45)C(O)CN(CC4CCCC4)S(=O)(=O)c4ccc5ncsc5c4)cc3)c(C(=O)O)c2C1 (stereo not drawn) [Compound I-601] | 3.26 nM | 0.164 mL/min/kg
COc1ccc(S(=O)(=O)N(CC(C)C)CC(O)C(Cc2ccc(NCc3ccccc3-c3sc4c(c3C(=O)O)CC(C)(C)CC4)cc2)NC(=O)OC2COC3OCCC23)cc1 (stereo not drawn) [Compound I-852] | 1.99 nM | 2.25 mL/min/kg
CC(C)CN(CC(O)C(Cc1ccc(NCc2ccccc2-c2sc3c(c2C(=O)O)CC(C)(C)CC3)cc1)NC(=O)OC1COC2(C)OCCC12)S(=O)(=O)c1ccc2c(c1)OCO2 (stereo not drawn) [Compound I-465] | 2.97 nM | 0.675 mL/min/kg
COc1ccc(S(=O)(=O)N(CC(C)C)CC(O)C(Cc2ccc(NCC3COCCC3c3sc4c(c3C(=O)O)CC(C)(C)CC4)cc2)NC(=O)OC2COC3(C)OCCC23)cc1 (stereo not drawn) [Compound I-399] | 1.94 nM | 0.487 mL/min/kg
COc1ccc(S(=O)(=O)N(CC(C)C)CC(O)C(Cc2ccc(N(C)Cc3ccccc3-c3sc(N(C4CCCCC4)C4CCCCC4)nc3C(=O)O)cc2)NC(=O)OC2COC3(C)OCCC23)cc1 (stereo not drawn) [Compound I-471] | 4.69 nM | 2.17 mL/min/kg
COc1ccc(S(=O)(=O)N(CC(C)C)CC(O)C(Cc2ccc(NCc3ccc(-c4sc5c(c4C(=O)O)CC(C)(C)CC5)cc3O)cc2)NC(=O)OC2COC3(C)OCCC23)cc1 (stereo not drawn) [Compound I-555] | 1.68 nM | 5.98 mL/min/kg
COc1ccc(S(=O)(=O)N(CC(C)C)CC(O)C(Cc2ccc(NCc3ccc(OC)cc3C(=O)Nc3sc4c(c3C(=O)O)CC(C)(C)CC4)cc2)NC(=O)OC2COC3(C)OCCC23)cc1 (stereo not drawn) [Compound I-580] | 3.23 nM | 0.0683 mL/min/kg
COc1ccc(S(=O)(=O)N(CC(C)C)CC(O)C(Cc2ccc(NCc3ccc(Cl)cc3-c3sc4c(c3C(=O)O)CC(C)(C)CC4)cc2)NC(=O)OC2COC3(C)OCCC23)cc1 (stereo not drawn) [Compound I-563] | 2.13 nM | 0.883 mL/min/kg
COc1ccc(S(=O)(=O)N(CC(C)C)CC(O)C(Cc2ccc(NCc3cccc(C(F)(F)F)c3-c3sc4c(c3C(=O)O)CC(C)(C)CC4)cc2)NC(=O)OC2COC3(C)OCCC23)cc1 (stereo not drawn) [Compound I-485] | 2.28 nM | 0.45 mL/min/kg
COc1ccc(S(=O)(=O)N(CC(C)C)CC(O)C(Cc2ccc(NCc3cc(N4CCN(C)CC4)ccc3-c3sc4c(c3C(=O)O)CC(C)(C)CC4)cc2)NC(=O)OC2COC3(C)OCCC23)cc1 (stereo not drawn) [Compound I-680] | 2.1 nM | 2.77 mL/min/kg
COc1ccc(S(=O)(=O)N(CC(C)C)CC(O)C(Cc2ccc(OCc3ccccc3NC(=O)c3sc4c(c3C(=O)O)CC(C)(C)CC4)cc2)NC(=O)OC2COC3(C)OCCC23)cc1 (stereo not drawn) [Compound I-214] | 1.89 nM | 0.297 mL/min/kg
COc1ccc(S(=O)(=O)N(CC(C)C)CC(O)C(Cc2ccc(NCC3CCCCC3C(=O)Nc3sc4c(c3C(=O)O)CC(C)(C)CC4)cc2)NC(=O)OC2COC3(C)OCCC23)cc1 (stereo not drawn) [Compound I-614] | 2.91 nM | 0.146 mL/min/kg
COc1ccc(S(=O)(=O)N(CC(C)C)CC(O)C(Cc2ccc(NCC3=C(c4sc5c(c4C(=O)O)CC(C)(C)CC5)CCCCC3)cc2)NC(=O)OC2COC3(C)OCCC23)cc1 (stereo not drawn) [Compound I-524] | 5.03 nM | 0.23 mL/min/kg
COc1ccc(S(=O)(=O)N(CC(C)C)CC(O)C(Cc2ccc(NCc3ccc(C)c(-c4sc5c(c4C(=O)O)CC(C)(C)CC5)c3)cc2)NC(=O)OC2COC3(C)OCCC23)cc1 (stereo not drawn) [Compound I-532] | 4.14 nM | 0.551 mL/min/kg
COc1ccc(S(=O)(=O)N(CC2CCC2)CC(O)C(Cc2ccc(NCc3ccccc3-c3sc4c(c3C(=O)O)CC(C)(C)CC4)cc2)NC(=O)OC2COC3(C)OCCC23)cc1 (stereo not drawn) [Compound I-474] | 2.14 nM | 1.28 mL/min/kg

Compound | IC50 (HIV-1 PR) | rat_CLt [1]
CC(C)CN(CC(O)C(Cc1ccc(NCc2ccccc2-c2sc3c(c2C(=O)O)CC(C)(C)CC3)cc1)NC(=O)OC1COC2(C)OCCC12)S(=O)(=O)c1ccc(OCF)cc1 (stereo not drawn) [Compound I-507] | 1.85 nM | 1.61 mL/min/kg
COc1ccc(S(=O)(=O)N(CC(C)C)CC(O)C(Cc2ccc(N(C)CCOc3ccc(-c4sc5c(c4C(=O)O)CC(C)(C)CC5)c(C)c3)cc2)NC(=O)OC2COC3(C)OCCC23)cc1 (stereo not drawn) [Compound I-519] | 8.93 nM | 0.429 mL/min/kg
COc1ccc(S(=O)(=O)N(CC(C)C)CC(O)C(Cc2ccc(N3CCC(Oc4ccc(C(F)(F)F)cc4-c4sc5c(c4C(=O)O)CC(C)(C)CC5)C3)cc2)NC(=O)OC2COC3(C)OCCC23)cc1 (stereo not drawn) [Compound I-514] | 6.21 nM | 3.01 mL/min/kg
COc1ccc(S(=O)(=O)N(CC(C)C)CC(O)C(Cc2ccc(N(C)Cc3ccc(C(F)(F)F)cc3-c3sc4c(c3C(=O)O)CC(C)(C)CC4)cc2)NC(=O)OC2COC3(C)OCCC23)cc1 (stereo not drawn) [Compound I-540] | 27.8 nM | 1.5 mL/min/kg
COc1ccc(S(=O)(=O)N(CC(C)C)CC(O)C(Cc2ccc(N(C)Cc3occc3-c3sc4c(c3C(=O)O)CC(C)(C)CC4)cc2)NC(=O)OC2COC3(C)OCCC23)cc1 (stereo not drawn) [Compound I-492] | 1.84 nM | 17.3 mL/min/kg
COc1ccc(S(=O)(=O)N(CC(C)C)CC(O)C(Cc2ccc(N(C)Cc3ccc(-c4sc5c(c4C(=O)O)CC(C)(C)CC5)cn3)cc2)NC(=O)OC2COC3(C)OCCC23)cc1 (stereo not drawn) [Compound I-449] | 2.19 nM | 11.1 mL/min/kg
COc1ccc(S(=O)(=O)N(CC2CCC2)CC(O)C(Cc2ccc(NCc3ccccc3C(=O)Nc3sc4c(c3C(=O)O)CC(C)(C)CC4)cc2)NC(=O)OC2COC3OCCC23)cc1 (stereo not drawn) [Compound I-860] | 3.56 nM | 0.0981 mL/min/kg
COc1ccc(S(=O)(=O)N(CC(C)C)C[C@@H](O)[C@H](Cc2ccc(N3CC[C@H](Oc4ccccc4-n4nc5c(c4C(=O)O)CC(C)(C)CC5)C3)cc2)NC(=O)O[C@H]2CO[C@@]3(C)OCC[C@@H]23)cc1 [Compound I-596] | 1.54 nM | 0.213 mL/min/kg
COc1ccc(S(=O)(=O)N(CC(C)C)CC(O)C(Cc2ccc(NCc3ccc4scc(C(=O)Nc5sc6c(c5C(=O)O)CC(C)(C)CC6)c4c3)cc2)NC(=O)OC2COC3(C)OCCC23)cc1 (stereo not drawn) [Compound I-440] | 4.5 nM | 0.871 mL/min/kg
COc1ccc(S(=O)(=O)N(CC(C)C)CC(O)C(Cc2ccc(NCc3ccc(N4CCCC4=O)cc3-c3sc4c(c3C(=O)O)CC(C)(C)CC4)cc2)NC(=O)OC2COC3(C)OCCC23)cc1 (stereo not drawn) [Compound I-742] | 2.08 nM | 5.03 mL/min/kg
COc1ccc(S(=O)(=O)N(CC(C)C)CC(O)C(Cc2ccc(NCc3ccc(F)c(-c4sc5c(c4C(=O)O)CC(C)(C)CC5)c3)cc2)NC(=O)OC2COC3(C)OCCC23)cc1 (stereo not drawn) [Compound I-287] | 2.02 nM | 2.73 mL/min/kg
COc1ccc(S(=O)(=O)N(CC(C)C)CC(O)C(Cc2ccc(NCc3cc(O)ccc3-c3sc4c(c3C(=O)O)CC(C)(C)CC4)cc2)NC(=O)OC2COC3(C)OCCC23)cc1 (stereo not drawn) [Compound I-561] | 1.35 nM | 4.48 mL/min/kg
COc1ccc(S(=O)(=O)N(CC(C)C)CC(O)C(Cc2ccc(N(C)Cc3cc(N(C)C)ccc3-c3sc4c(c3C(=O)O)CC(C)(C)CC4)cc2)NC(=O)OC2COC3(C)OCCC23)cc1 (stereo not drawn) [Compound I-538] | 2.86 nM | 0.598 mL/min/kg
COc1ccc(S(=O)(=O)N(CC(C)C)CC(O)C(Cc2ccc(N(C)Cc3cc(C(F)(F)F)ccc3-c3sc4c(c3C(=O)O)CC(C)(C)CC4)cc2)NC(=O)OC2COC3(C)OCCC23)cc1 (stereo not drawn) [Compound I-451] | 9.46 nM | 0.211 mL/min/kg
COc1ccc(S(=O)(=O)N(CC(C)C)CC(O)C(Cc2ccc(NCc3nc(N4CCCC4)sc3-c3ccc(-c4sc5c(c4C(=O)O)CC(C)(C)CC5)cc3)cc2)NC(=O)OC2COC3(C)OCCC23)cc1 (stereo not drawn) [Compound I-714] | 4.5 nM | 0.0783 mL/min/kg
COc1ccc(S(=O)(=O)N(CC(C)C)C[C@@H](O)[C@H](Cc2ccc(NCc3cc(-c4ccc(N(C)C)cc4)ccc3-c3sc4c(c3C(=O)O)CC(C)(C)CC4)cc2)NC(=O)O[C@H]2CO[C@@]3(C)OCC[C@@H]23)cc1 [Compound I-720] | 2.42 nM | 0.0677 mL/min/kg
COc1ccc(S(=O)(=O)N(CC(C)C)CC(O)C(Cc2ccc(NCc3cccc(C)c3-c3sc4c(c3C(=O)O)CC(C)(C)CC4)cc2)NC(=O)OC2COC3(C)OCCC23)cc1 (stereo not drawn) [Compound I-598] | 2.12 nM | 0.532 mL/min/kg
COc1ccc(S(=O)(=O)N(CC(C)C)CC(O)C(Cc2ccc(N3CCC(Oc4cc5ccccc5cc4-c4sc5c(c4C(=O)O)CC(C)(C)CC5)C3)cc2)NC(=O)OC2COC3(C)OCCC23)cc1 (stereo not drawn) [Compound I-509] | 1.96 nM | 0.377 mL/min/kg
